Converted amounts (≈) assume the structure as drawn.
Legend:
Micro shake flask LogD = conditions: for Mean LogD: Octanol:PBS 1:9 at pH 7.4, 10 μM, six replicates
Procedure: 6 replicates of each test compound were incubated at 10 μM in a 1:9 ratio of Octanol:PBS at pH 7.4. Following a two hour incubation at room temperature shaking at 600 rpm, the incubation plate was centrifuged for 15 minutes to separate the layers and then two aliquots were removed from the PBS layer. The first was left neat and the second was diluted 10-fold to give dilute samples. Internal standards were added to both the calibration curve and the PBS incubation samples for analysis on LC MS/MS. […] 5,6-MDAI-tryptophanamide and 3,4-MDA-tryptophanamide were prepared as hemioxalate salts.
LogD was measured as the concentration in the PBS layer against the generated calibration curve relative to the starting concentration of 10 μM. All 6 replicates of the neat samples were averaged to give one value for each, with the same calculation performed for the dilute sample values.
6 replicates of each test compound were incubated at 10 μM in a 1:9 ratio of Octanol:PBS at pH 7.4. Following a two hour incubation at room temperature shaking at 600 rpm, the incubation plate was centrifuged for 15 minutes to separate the layers and then two aliquots were removed from the PBS layer. The first was left neat and the second was diluted 10-fold to give dilute samples.

[1] = test system: monoamine neurotransmitter release; test: Microdialysis of nucleus accumbens with HPLC analysis of dopamine, noradrenaline and serotonin; assay type: in vivo, Male Sprague Dawley rats; conditions: rat, PO, 5 mg/kg
[2] = Kinetic turbidimetric solubility assay; conditions: for Solubility: Example 12, 0.01 M phosphate buffered saline pH 7.4, 2% DMSO, room temperature, maximum concentration tested 200 μM, test compounds as hemioxalate salts; for solubility at 5 min: phosphate buffered saline, pH 7.4, aqueous buffer, kinetic from dmso stock
[3] = test system: behavioural measures of serotonin syndrome; test: Behavioural observations for measures of serotonin syndrome in rats; conditions: rat, PO, 5 mg/kg; scored post-treatment up to 2 hours
locomotor activity = test: Locomotor activity in rats following oral dosing (EthoVision tracking); assay type: in vivo, Male Sprague Dawley rats; conditions: rat, 5 mg/kg
rats = conditions: previously shown, Baumann et al. 2008; cited from earlier work
[4] = Example 13, glycinamides as hemioxalate salts
[5] = Example 12, test compounds as hemioxalate salts

Row | Compound | Mean LogD (Micro shake flask LogD; [4]) | Mean LogD (Micro shake flask LogD; [5]) | Serotonin levels in nucleus accumbens, compared to the vehicle group ([1]; 2 hour period following dosing) | Magnitude of effect on serotonin levels compared to MDMA ([1]; nucleus accumbens) | Solubility [2] | Observations (approximate timecourse), behaviours significantly increased vs vehicle [3] | solubility at 5 min [2] | further results
1 | CC(Cc1ccc2c(c1)OCO2)NC(=O)CN (centres unmarked) [3,4-MDA-glycinamide] | 1.08 |  |  |  |  |  |  | LogD compared with that of MDMA (Micro shake flask LogD; Example 13, Octanol:PBS at pH 7.4): slightly greater than that of MDMA
2 | CC(Cc1ccc2c(c1)OCO2)NC(=O)[C@@H](N)Cc1c[nH]c2ccccc12 (some centres unmarked) [3,4-MDA-tryptophanamide] |  | 1.97 | significant increases | smaller in magnitude compared to MDMA | >200 µM | None |  | Dopamine levels in nucleus accumbens, compared to the vehicle group ([1]; 2 hour period following dosing): significant increases; Noradrenaline levels in nucleus accumbens, compared to the vehicle group ([1]; 2 hour period following dosing): significant increases; Magnitude of effects on dopamine and noradrenaline levels compared to MDMA ([1]; nucleus accumbens): smaller in magnitude compared to MDMA
3 | CC(Cc1ccc2c(c1)OCO2)N(C)C(=O)CN (centres unmarked) [3,4-MDMA-glycinamide] | 0.66 |  |  |  |  |  |  | 
4 | N[C@@H](Cc1c[nH]c2ccccc12)C(=O)NC1Cc2cc3c(cc2C1)OCO3 [5,6-MDAI-tryptophanamide] |  | 2.31 | significant increases | smaller in magnitude compared to MDMA | >200 µM | None |  | 
5 | CNC(C)Cc1ccc2c(c1)OCO2 (centres unmarked) [MDMA, 3,4-Methylenedioxy-N-methylamphetamine] |  |  |  |  |  | Flattened posture (~0-40 mins) and hind limb | ≥ 200 µM | logD at 2 h (Micro shake flask LogD; pH 7.4): 0.57; Effect on locomotor activity (significant change in total distance travelled vs vehicle) (locomotor activity; 0-60 mins): ↑↑↑ (↑↑↑, p < 0.001); Effect on locomotor activity (significant change in total distance travelled vs vehicle) (locomotor activity; 0-120 mins): ↑↑↑ (↑↑↑, p < 0.001); Effect on locomotor activity (significant change in total distance travelled vs vehicle) (locomotor activity; 60-120 mins): ↑↑↑ (↑↑↑, p < 0.001); Behavioural measures of serotonin syndrome (rats): induce; Locomotion (rats): hyperlocomotion; Monoamine neurotransmitter levels (rats): elevations
6 | COC(=O)C1=C(C)NC(C)=C(C(=O)OCCN(C)Cc2ccccc2)C1c1cccc([N+](=O)[O-])c1 (centres unmarked) [Nicardipine, reference compound] |  |  |  |  |  |  | 22.1 µM (≈ 10.6 µg/mL) | 

Reference: patent US20230322743A1, “NOVEL […] DERIVATIVES HAVING PRODRUG PROPERTIES” (Compass Pathfinder Limited, priority 2020, published 2023)
